The values below come from patent publication US10570129B2 (Zoetis Services LLC, priority 2015, dated 2020).

The subject of one test is Haemonchus contortus L3. The test can be described thus: microbe, parasite or virus in culture. In kind it is cell-based. As to conditions: Haemonchus contortus, 96 h, read-out: HcL3 Minimal Effective Concentration (MEC).
A further test has as its system D. immitis microfilariae. The test can be described thus: Dirofilaria immitis, microfilariae (DiMF) in vitro motility assay. The conditions noted are these: Dirofilaria immitis, 72 h, read-out: DiMF minimally effective dose (MEC). The class given is cell-based.

As for `N#Cc1ccc(/C=C/CN2CCc3c(c4cc(OC(F)(F)F)ccc4n3C(=O)NCc3ccnc(F)c3)C2)cc1F` [Example 402, (E)-2-(3-(4-cyano-3-fluorophenyl)allyl)-N-((2-fluoropyridin-4-yl)methyl)-8-(trifluoromethoxy)-1,2,3,4-tetrahydro-5H-pyrido[4,3-b]indole-5-carboxamide], the minimal effective concentration with Haemonchus contortus L3 was 0.3 µM; in the test on D. immitis microfilariae, 5.7 µM.

For the compound `N#Cc1ccc2c(c1)c1c(n2C(=O)NCc2ccnc(O)c2)CCN(C/C=C/c2cc(F)c(Cl)c(F)c2)C1` [Example 450, (E)-2-(3-(4-chloro-3,5-difluorophenyl)allyl)-8-cyano-N-((2-hydroxypyridin-4-yl)methyl)-1,2,3,4-tetrahydro-5H-pyrido[4,3-b]indole-5-carboxamide], the values for the minimal effective concentration with Haemonchus contortus L3 and in the test with D. immitis microfilariae were 0.5 µM and 100 µM, respectively.

On to `O=C(NCc1ccnc(Cl)c1)n1c2c(c3cc(Cl)c(Cl)cc31)CN(C/C=C/c1ccc(F)c(Cl)c1)CC2` [Example 277, (E)-7,8-dichloro-2-(3-(3-chloro-4-fluorophenyl)allyl)-N-((2-chloropyridin-4-yl)methyl)-1,2,3,4-tetrahydro-5H-pyrido[4,3-b]indole-5-carboxamide], for which the results for the minimal effective concentration in the test with Haemonchus contortus L3 and in the test on D. immitis microfilariae were 1 µM and above 100 µM, respectively.

For the compound `O=C(NCc1ccnc(F)c1)n1c2c(c3cc(C(F)(F)F)ccc31)CN(C/C=C/c1ccc(Cl)c(F)c1)CC2` [Example 415, (E)-2-(3-(4-chloro-3-fluorophenyl)allyl)-N-((2-fluoropyridin-4-yl)methyl)-8-(trifluoromethyl)-1,2,3,4-tetrahydro-5H-pyrido[4,3-b]indole-5-carboxamide], the minimal effective concentration was determined as 2.7 µM in the test on Haemonchus contortus L3 and 12.4 µM with D. immitis microfilariae.

As to `Cc1ccc2c(c1)c1c(n2C(=O)NCc2ccnc(Cl)c2)CCN(C/C=C/c2ccc(OC(F)(F)F)cc2)C1` [Example 434, (E)-N-((2-chloropyridin-4-yl)methyl)-8-methyl-2-(3-(4-(trifluoromethoxy)-phenyl)allyl)-1,2,3,4-tetrahydro-5H-pyrido[4,3-b]indole-5-carboxamide], the values for the minimal effective concentration in the test on Haemonchus contortus L3 and in the test with D. immitis microfilariae were 3.3 µM and 5.7 µM, respectively.

With `O=C(NCc1ccnc(Cl)c1)n1c2c(c3c4ccccc4ccc31)CN(C/C=C/c1ccc(Cl)cc1)CC2` [Example 436, (E)-10-(3-(4-chlorophenyl)allyl)-N-((2-chloropyridin-4-yl)methyl)-8,9,10,11-tetrahydro-7H-benzo[e]pyrido[4,3-b]indole-7-carboxamide], the minimal effective concentration was above 100 µM in the test on Haemonchus contortus L3 and 18.2 µM in the test with D. immitis microfilariae.

As to `N#Cc1ccc2c(c1)c1c(n2C(=O)NCc2ccnc(F)c2)CCN(C/C=C/c2ccc(Br)c(F)c2)C1` [Example 105, (E)-2-(3-(4-bromo-3-fluorophenyl)allyl)-8-cyano-N-((2-fluoropyridin-4-yl)methyl)-1,2,3,4-tetrahydro-5H-pyrido[4,3-b]indole-5-carboxamide], the minimal effective concentration with Haemonchus contortus L3 is 0.3 µM; in the test with D. immitis microfilariae it was above 100 µM.

Consider `N#Cc1cccc2c1c1c(n2C(=O)NCc2ccnc(Cl)c2)CCN(C/C=C/c2ccc(Cl)cc2Cl)C1` [Example 4, (E)-N-((2-chloropyridin-4-yl)methyl)-9-cyano-2-(3-(2,4-dichlorophenyl)allyl)-1,2,3,4-tetrahydro-5H-pyrido[4,3-b]indole-5-carboxamide], for which the minimal effective concentration with Haemonchus contortus L3 is above 100 µM; in the test on D. immitis microfilariae, 10 µM.

Turning to `O=C(NCc1ccnc(Cl)c1)n1c2c(c3cc(C(F)(F)F)ccc31)CN(C/C=C/c1ccc(F)cc1F)CC2` [Example 412, (E)-N-((2-chloropyridin-4-yl)methyl)-2-(3-(2,4-difluorophenyl)allyl)-8-(trifluoromethyl)-1,2,3,4-tetrahydro-5H-pyrido[4,3-b]indole-5-carboxamide], the minimal effective concentration in the test on Haemonchus contortus L3 worked out at 1.8 µM; in the test with D. immitis microfilariae, 10 µM.

Turning to `N#Cc1ccc2c3c(n(C(=O)NCc4ccnc(Cl)c4)c2c1)CCN(C/C=C/c1c(F)c(F)c(Cl)c(F)c1F)C3` [Example 17, (E)-2-(3-(4-chloro-2,3,5,6-tetrafluorophenyl)allyl)-N-((2-chloropyridin-4-yl)methyl)-7-cyano-1,2,3,4-tetrahydro-5H-pyrido[4,3-b]indole-5-carboxamide], the minimal effective concentration was 1 µM with Haemonchus contortus L3 and above 100 µM with D. immitis microfilariae.

With `N#Cc1ccc2c(c1)c1c(n2C(=O)NCc2ccnc(F)c2)CCN(C/C=C/c2cc(Br)cs2)C1` [Example 126, (E)-2-(3-(4-bromothiophen-2-yl)allyl)-8-cyano-N-((2-fluoropyridin-4-yl)methyl)-1,2,3,4-tetrahydro-5H-pyrido[4,3-b]indole-5-carboxamide], the minimal effective concentration with Haemonchus contortus L3 and with D. immitis microfilariae was above 100 µM throughout.

`N#Cc1ccc2c3c(n(C(=O)NCc4ccnc(Cl)c4)c2c1)CCN(C/C=C/c1ccc(F)cc1F)C3` [Example 26, (E)-N-((2-chloropyridin-4-yl)methyl)-7-cyano-2-(3-(2,4-difluorophenyl)allyl)-1,2,3,4-tetrahydro-5H-pyrido[4,3-b]indole-5-carboxamide]: the minimal effective concentration amounted to 2.4 µM in the test on Haemonchus contortus L3 and 5.7 µM in the test with D. immitis microfilariae.

With `O=C(NCc1ccnc(Cl)c1)n1c2c(c3ccc(OC(F)(F)F)cc31)CN(C/C=C/c1ccc(Cl)c(Cl)c1)CC2` [Example 355, (E)-N-((2-chloropyridin-4-yl)methyl)-2-(3-(3,4-dichlorophenyl)allyl)-7-(trifluoromethoxy)-1,2,3,4-tetrahydro-5H-pyrido[4,3-b]indole-5-carboxamide], the minimal effective concentration came out at 1 µM with Haemonchus contortus L3 and 69.1 µM in the test with D. immitis microfilariae.

For `O=C(NCc1ccnc(F)c1)n1c2c(c3cc(F)c(Cl)cc31)CN(C/C=C/c1ccc(F)cc1)CC2` [Example 319, (E)-7-chloro-8-fluoro-2-(3-(4-fluorophenyl)allyl)-N-((2-fluoropyridin-4-yl)methyl)-1,2,3,4-tetrahydro-5H-pyrido[4,3-b]indole-5-carboxamide], the minimal effective concentration with Haemonchus contortus L3 and in the test on D. immitis microfilariae was 10 µM each time.

As to `CS(=O)(=O)c1ccc2c(c1)c1c(n2C(=O)NCc2ccnc(Cl)c2)CCN(C/C=C/c2ccc(Cl)c(Cl)c2)C1` [Example 458, (E)-N-((2-chloropyridin-4-yl)methyl)-2-(3-(3,4-dichlorophenyl)allyl)-8-(methylsulfonyl)-1,2,3,4-tetrahydro-5H-pyrido[4,3-b]indole-5-carboxamide], the minimal effective concentration was 5.7 µM with Haemonchus contortus L3 and 3.3 µM in the test on D. immitis microfilariae.

`O=C(NCc1ccnc(Cl)c1)n1c2c(c3ccc(OC(F)(F)F)cc31)CN(C/C=C/c1ccc(C(F)(F)F)cn1)CC2` [Example 342, (E)-N-((2-chloropyridin-4-yl)methyl)-7-(trifluoromethoxy)-2-(3-(5-(trifluoromethyl)pyridin-2-yl)allyl)-1,2,3,4-tetrahydro-5H-pyrido[4,3-b]indole-5-carboxamide]: the minimal effective concentration with Haemonchus contortus L3 is 1.8 µM; in the test on D. immitis microfilariae, 10 µM.

For the compound `O=C(NCc1ccnc(Cl)c1)n1c2c(c3cccc(Cl)c31)CN(C/C=C/c1ccc(Cl)c(Cl)c1)CC2` [Example 268, (E)-6-chloro-N-((2-chloropyridin-4-yl)methyl)-2-(3-(3,4-dichlorophenyl)allyl)-1,2,3,4-tetrahydro-5H-pyrido[4,3-b]indole-5-carboxamide], the minimal effective concentration in the test with Haemonchus contortus L3 was above 100 µM; with D. immitis microfilariae, 10 µM.

For `N#Cc1ccc2c(c1)c1c(n2C(=O)NCc2ccnc(Cl)c2)CCN(C/C=C/c2cc(F)cc(F)c2)C1` [Example 90, (E)-N-((2-chloropyridin-4-yl)methyl)-8-cyano-2-(3-(3,5-difluorophenyl)allyl)-1,2,3,4-tetrahydro-5H-pyrido[4,3-b]indole-5-carboxamide], the minimal effective concentration was determined as 0.1 µM in the test with Haemonchus contortus L3 and 3.3 µM in the test with D. immitis microfilariae.

With `O=C(NCc1ccnc(Cl)c1)n1c2c(c3ccc(OC(F)(F)F)cc31)CN(C/C=C/c1ccc(Cl)cc1Cl)CC2` [Example 337, (E)-N-((2-chloropyridin-4-yl)methyl)-2-(3-(2,4-dichlorophenyl)allyl)-7-(trifluoromethoxy)-1,2,3,4-tetrahydro-5H-pyrido[4,3-b]indole-5-carboxamide], the results for the minimal effective concentration with Haemonchus contortus L3 and in the test with D. immitis microfilariae were 1 µM and 18.2 µM, respectively.

As to `N#Cc1cc2c(cc1F)c1c(n2C(=O)NCc2ccnc(F)c2)CCN(C/C=C/c2ccc(Cl)cc2)C1` [Example 174, (E)-2-(3-(4-chlorophenyl)allyl)-7-cyano-8-fluoro-N-((2-fluoropyridin-4-yl)methyl)-1,2,3,4-tetrahydro-5H-pyrido[4,3-b]indole-5-carboxamide], the results for the minimal effective concentration with Haemonchus contortus L3 and in the test on D. immitis microfilariae were 57.4 µM and above 100 µM, respectively.

As to `N#Cc1ccc2c(c1)c1c(n2C(=O)NCc2ccnc(Cl)c2)CCN(C/C=C/c2cc(Br)ccc2F)C1` [Example 78, (E)-2-(3-(5-bromo-2-fluorophenyl)allyl)-N-((2-chloropyridin-4-yl)methyl)-8-cyano-1,2,3,4-tetrahydro-5H-pyrido[4,3-b]indole-5-carboxamide], the results for the minimal effective concentration in the test on Haemonchus contortus L3 and with D. immitis microfilariae were 0.6 µM and above 100 µM, respectively.

For `O=C(NCc1ccnc(Cl)c1)n1c2c(c3cccc(Cl)c31)CN(C/C=C/c1ccc(C(F)(F)F)cc1)CC2` [Example 272, (E)-6-chloro-N-((2-chloropyridin-4-yl)methyl)-2-(3-(4-(trifluoromethyl)-phenyl)allyl)-1,2,3,4-tetrahydro-5H-pyrido[4,3-b]indole-5-carboxamide], the minimal effective concentration in the test with Haemonchus contortus L3 was above 100 µM; in the test on D. immitis microfilariae, 10 µM.

Turning to `O=C(NCc1ccnc(Cl)c1)n1c2c(c3cc(OC(F)(F)F)ccc31)CN(C/C=C/c1ccc(F)c(F)c1)CC2` [Example 389, (E)-N-((2-chloropyridin-4-yl)methyl)-2-(3-(3,4-difluorophenyl)allyl)-8-(trifluoromethoxy)-1,2,3,4-tetrahydro-5H-pyrido[4,3-b]indole-5-carboxamide], the minimal effective concentration with Haemonchus contortus L3 amounted to 0.5 µM; with D. immitis microfilariae it was 10 µM.
